Test results taken from the supplement of paper PMC10307832.

Tests used:
Test in all cases: relative viability (nuclei count vs DMSO), 5 days (fraction); higher = more cells survive
201T = test system: 201T
Method in brief: (§1)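 Dosing by pin tool came one day after lung cancer cell lines were seeded in 1536-well plates, using either one drug or a fixed anchor-drug dose plus five library-drug doses (not always all listed) in √10 steps. After 5 days, nuclei were counted on 4× images. Relative viability is treated-well nuclei count divided by vehicle-well nuclei count, and values are medians of duplicate plates.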

COR-L 105 = test system: COR-L 105
Method in brief: as §1

ChaGo-K-1 = test system: ChaGo-K-1
Method in brief: as §1

EPLC-272H = test system: EPLC-272H
Method in brief: as §1

H3255 = test system: H3255
Method in brief: as §1

HCC-78 = test system: HCC-78
Method in brief: as §1

HCC-827 = test system: HCC-827
Method in brief: as §1

LC-2-ad = test system: LC-2-ad
Method in brief: as §1

LCLC-97TM1 = test system: LCLC-97TM1
Method in brief: as §1

NCI-H1666 = test system: NCI-H1666
Method in brief: as §1

NCI-H1915 = test system: NCI-H1915
Method in brief: as §1

NCI-H2087 = test system: NCI-H2087
Method in brief: as §1

NCI-H2126 = test system: NCI-H2126
Method in brief: as §1

NCI-H2347 = test system: NCI-H2347
Method in brief: as §1

NCI-H23 = test system: NCI-H23
Method in brief: as §1

NCI-H2405 = test system: NCI-H2405
Method in brief: as §1

NCI-H322M = test system: NCI-H322M
Method in brief: as §1

NCI-H520 = test system: NCI-H520
Method in brief: as §1

NCI-H647 = test system: NCI-H647
Method in brief: as §1

NCI-H650 = test system: NCI-H650
Method in brief: as §1

NCI-H661 = test system: NCI-H661
Method in brief: as §1

PC-14 = test system: PC-14
Method in brief: as §1

RERF-LC-KJ = test system: RERF-LC-KJ
Method in brief: as §1

Compound: NC(=O)Nc1cc(-c2cccc(F)c2)sc1C(=O)N[C@H]1CCCNC1 [AZD7762] + N=C(N)NC(=N)NCCc1ccccc1 [Phenformin] (partner 250 µM)
- relative viability (201T; first compound 0.01 µM): 0.465
- relative viability (201T; first compound 0.03162 µM): 0.406
- relative viability (201T; first compound 0.1 µM): 0.453
- relative viability (201T; first compound 0.3162 µM): 0.495
- relative viability (201T; first compound 1 µM): 0.442
- relative viability (COR-L 105; first compound 0.01 µM): 0.5
- relative viability (COR-L 105; first compound 0.03162 µM): 0.491
- relative viability (COR-L 105; first compound 0.1 µM): 0.477
- relative viability (COR-L 105; first compound 0.3162 µM): 0.429
- relative viability (COR-L 105; first compound 1 µM): 0.254
- relative viability (ChaGo-K-1; first compound 0.01 µM): 0.517
- relative viability (ChaGo-K-1; first compound 0.03162 µM): 0.513
- relative viability (ChaGo-K-1; first compound 0.1 µM): 0.479
- relative viability (ChaGo-K-1; first compound 0.3162 µM): 0.468
- relative viability (ChaGo-K-1; first compound 1 µM): 0.496
- relative viability (EPLC-272H; first compound 0.01 µM): 0.325
- relative viability (EPLC-272H; first compound 0.03162 µM): 0.359
- relative viability (EPLC-272H; first compound 0.1 µM): 0.278
- relative viability (EPLC-272H; first compound 0.3162 µM): 0.261
- relative viability (EPLC-272H; first compound 1 µM): 0.164
- relative viability (H3255; first compound 0.01 µM): 0.337
- relative viability (H3255; first compound 0.03162 µM): 0.357
- relative viability (H3255; first compound 0.1 µM): 0.402
- relative viability (H3255; first compound 0.3162 µM): 0.378
- relative viability (H3255; first compound 1 µM): 0.374
- relative viability (HCC-78; first compound 0.01 µM): 0.737
- relative viability (HCC-78; first compound 0.03162 µM): 1.12
- relative viability (HCC-78; first compound 0.1 µM): 0.766
- relative viability (HCC-78; first compound 0.3162 µM): 0.718
- relative viability (HCC-78; first compound 1 µM): 0.604
- relative viability (HCC-827; first compound 0.01 µM): 0.406
- relative viability (HCC-827; first compound 0.03162 µM): 0.422
- relative viability (HCC-827; first compound 0.1 µM): 0.442
- relative viability (HCC-827; first compound 0.3162 µM): 0.435
- relative viability (HCC-827; first compound 1 µM): 0.249
- relative viability (LC-2-ad; first compound 0.01 µM): 0.645
- relative viability (LC-2-ad; first compound 0.03162 µM): 0.595
- relative viability (LC-2-ad; first compound 0.1 µM): 0.555
- relative viability (LC-2-ad; first compound 0.3162 µM): 0.592
- relative viability (LC-2-ad; first compound 1 µM): 0.342
- relative viability (LCLC-97TM1; first compound 0.01 µM): 0.429
- relative viability (LCLC-97TM1; first compound 0.03162 µM): 0.434
- relative viability (LCLC-97TM1; first compound 0.1 µM): 0.479
- relative viability (LCLC-97TM1; first compound 0.3162 µM): 0.406
- relative viability (LCLC-97TM1; first compound 1 µM): 0.433
- relative viability (NCI-H1666; first compound 0.01 µM): 0.549
- relative viability (NCI-H1666; first compound 0.03162 µM): 0.596
- relative viability (NCI-H1666; first compound 0.1 µM): 0.532
- relative viability (NCI-H1666; first compound 0.3162 µM): 0.554
- relative viability (NCI-H1666; first compound 1 µM): 0.467
- relative viability (NCI-H1915; first compound 0.01 µM): 0.373
- relative viability (NCI-H1915; first compound 0.03162 µM): 0.375
- relative viability (NCI-H1915; first compound 0.1 µM): 0.368
- relative viability (NCI-H1915; first compound 0.3162 µM): 0.362
- relative viability (NCI-H1915; first compound 1 µM): 0.349
- relative viability (NCI-H2087; first compound 0.01 µM): 0.434
- relative viability (NCI-H2087; first compound 0.03162 µM): 0.513
- relative viability (NCI-H2087; first compound 0.1 µM): 0.566
- relative viability (NCI-H2087; first compound 0.3162 µM): 0.553
- relative viability (NCI-H2087; first compound 1 µM): 0.554
- relative viability (NCI-H2126; first compound 0.01 µM): 0.513
- relative viability (NCI-H2126; first compound 0.03162 µM): 0.593
- relative viability (NCI-H2126; first compound 0.1 µM): 0.545
- relative viability (NCI-H2126; first compound 0.3162 µM): 0.536
- relative viability (NCI-H2126; first compound 1 µM): 0.462
- relative viability (NCI-H2347; first compound 0.01 µM): 0.426
- relative viability (NCI-H2347; first compound 0.03162 µM): 0.365
- relative viability (NCI-H2347; first compound 0.1 µM): 0.51
- relative viability (NCI-H2347; first compound 0.3162 µM): 0.483
- relative viability (NCI-H2347; first compound 1 µM): 0.371
- relative viability (NCI-H23; first compound 0.01 µM): 0.813
- relative viability (NCI-H23; first compound 0.03162 µM): 0.831
- relative viability (NCI-H23; first compound 0.1 µM): 0.808
- relative viability (NCI-H23; first compound 0.3162 µM): 0.654
- relative viability (NCI-H23; first compound 1 µM): 0.434
- relative viability (NCI-H2405; first compound 0.01 µM): 0.4
- relative viability (NCI-H2405; first compound 0.03162 µM): 0.452
- relative viability (NCI-H2405; first compound 0.1 µM): 0.402
- relative viability (NCI-H2405; first compound 0.3162 µM): 0.425
- relative viability (NCI-H2405; first compound 1 µM): 0.242
- relative viability (NCI-H322M; first compound 0.01 µM): 0.704
- relative viability (NCI-H322M; first compound 0.03162 µM): 0.85
- relative viability (NCI-H322M; first compound 0.1 µM): 0.747
- relative viability (NCI-H322M; first compound 0.3162 µM): 0.36
- relative viability (NCI-H322M; first compound 1 µM): 0.284
- relative viability (NCI-H520; first compound 0.01 µM): 0.623
- relative viability (NCI-H520; first compound 0.03162 µM): 0.758
- relative viability (NCI-H520; first compound 0.1 µM): 0.585
- relative viability (NCI-H520; first compound 0.3162 µM): 0.306
- relative viability (NCI-H520; first compound 1 µM): 0.283
- relative viability (NCI-H647; first compound 0.01 µM): 0.495
- relative viability (NCI-H647; first compound 0.03162 µM): 0.445
- relative viability (NCI-H647; first compound 0.1 µM): 0.494
- relative viability (NCI-H647; first compound 0.3162 µM): 0.315
- relative viability (NCI-H647; first compound 1 µM): 0.106
- relative viability (NCI-H650; first compound 0.01 µM): 0.453
- relative viability (NCI-H650; first compound 0.03162 µM): 0.46
- relative viability (NCI-H650; first compound 0.1 µM): 0.49
- relative viability (NCI-H650; first compound 0.3162 µM): 0.446
- relative viability (NCI-H650; first compound 1 µM): 0.538
- relative viability (NCI-H661; first compound 0.01 µM): 0.272
- relative viability (NCI-H661; first compound 0.03162 µM): 0.269
- relative viability (NCI-H661; first compound 0.1 µM): 0.232
- relative viability (NCI-H661; first compound 0.3162 µM): 0.265
- relative viability (NCI-H661; first compound 1 µM): 0.262
- relative viability (PC-14; first compound 0.01 µM): 0.652
- relative viability (PC-14; first compound 0.03162 µM): 0.611
- relative viability (PC-14; first compound 0.1 µM): 0.459
- relative viability (PC-14; first compound 0.3162 µM): 0.305
- relative viability (PC-14; first compound 1 µM): 0.213
- relative viability (RERF-LC-KJ; first compound 0.01 µM): 0.481
- relative viability (RERF-LC-KJ; first compound 0.03162 µM): 0.424
- relative viability (RERF-LC-KJ; first compound 0.1 µM): 0.399
- relative viability (RERF-LC-KJ; first compound 0.3162 µM): 0.4
- relative viability (RERF-LC-KJ; first compound 1 µM): 0.382
